The values that follow come from a melting point compilation (Tetko et al.; mined from patent text by program, amines drawn as free bases though some values may be those of a salt).

Usually melting point stands for the temperature, or range, at which the solid turns liquid.

For the compound `NC(=O)NCCCCCCNC(N)=O`, the melting point was 197 to 200 °C.
`COc1ccc2c(ccn3c(C(F)(F)F)nnc23)c1` displayed a melting point of 214 to 215 °C.
The compound `Cc1csc2c1c(-c1ccccc1Cl)nc(=O)n2C` yielded a melting point of 268 °C.
The figure for `CCCCC(OCC(=O)c1ccccc1)C(F)CC` (stereo unspecified) is 39.6 to 40.1 °C; for `CCOC(=O)C1=C(C)NC(C)=C(C(=O)OCC)C1c1cc(Cl)ccc1Cl` it is 166 to 168 °C.
Compound `CCCc1c(OCCCOc2ccc3ccc(OCC(=O)O)cc3c2C(C)=O)ccc(C(C)=O)c1O` displayed a melting point of 140 to 141 °C.
In the case of `O=C(Cc1ccc(Cl)c(Cl)c1)NCc1ccc2c(c1)CN(C1CCC(=O)NC1=O)C2=O` (stereo unspecified), the melting point is 191 to 193 °C.
In the case of `O=C(O)C(Cl)(Cl)CCCCCCCCCCCCBr`, the melting point lay within 59 to 60 °C.
In turn, `CSc1nc2ccc3c(c2o1)C(CCNC(C)=O)CC3` (stereo unspecified) returned a melting point of 115 to 117 °C.
Regarding `CS(=O)(=O)Nc1ccc(OCCCI)cc1`, the melting point is 109 to 111 °C.
`Cc1cc(C(O)(C(F)(F)F)C(F)(F)F)cc(C)c1NCC(N)=O` came in with a melting point of 205 to 207 °C.
As to `COc1ccc(-c2nc(-c3cccs3)c[nH]2)cc1Cl`, the melting point lay in the range of 82 to 85 °C.
The compound `Cn1nnnc1-c1cn(C)c2cc(Br)ccc2c1=O` displayed a melting point of 292 to 294 °C.
In the case of `O=C(NCc1ccc2c(c1)OCO2)c1ccccc1` it was 115 to 116 °C; in that of `COC(=O)c1ccc(Cc2ccc(NC(C)=O)cc2)cn1`, 175 to 177 °C; in that of `OC[C@H](O)[C@@H](O)CCNCc1ccccc1`, 117 to 118 °C.
As to `O=c1[nH]c(S)ncc1O`, the melting point is greater than 300 °C.
In the case of `O=C(O)CCNc1ccc2c(C(=O)NCC34CC5CC(CC(C5)C3)C4)c(Cl)ccc2n1` it was 251 to 252 °C; in that of `COc1cc(-c2cc(C(F)(F)F)nn2-c2ccc(S(N)(=O)=O)cc2)ccc1-c1cocn1`, 143 to 145 °C; in that of `COc1cccc(NC(=O)C(C)Oc2ccc(Oc3ccc(C#N)cc3)cc2)c1` (stereo unspecified), 118 to 120 °C.
Regarding `CN(C)S(=O)(=O)n1cc(C(=O)c2c(Cl)cc(Cl)cc2Cl)nc1C#N`, the melting point was 142 to 150 °C.
In the case of `COc1cc(C(=O)O)cc(OC)c1Cl` it was 102 to 103 °C; in that of `NS(=O)(=O)c1ccc(-c2cc(-c3c[nH]nc3-c3cccc(C4CC4)n3)ccc2F)cc1`, 225 to 226 °C.
For `COC(=O)c1scc(-c2ccccc2)c1N`, the melting point fell in the range of 64 to 66 °C.
On to `Cc1ccc(-c2nc(Cl)cc(N3CCN(CCO)CC3)n2)cc1`, for which the melting point stood at 104 °C.
Regarding `CN(CC(=O)NO)S(=O)(=O)Cc1cccc(C(F)(F)F)c1`, the melting point fell in the range of 128 to 129 °C.
The compound `Cc1cc(N)nc(CCc2nc3cc(-c4ccc(F)cc4)cnc3[nH]2)c1` gave a melting point of 228 °C.
On to `C=CCN1C2CCC3C1CCC2N3C(c1ccc(C(=O)N2CCCCC2)cc1)c1cccc(OC)c1` (stereo unspecified), for which the melting point was 94 to 96 °C.
`CCOC(=O)c1cnc2c(NC(=O)c3c(Cl)cccc3Cl)cccc2c1CSc1ccncc1` returned a melting point of 179 to 181 °C.
`CS(=O)(=O)N(Cc1ccc(Cl)cc1)CC(O)(Cn1cncn1)c1ccc(Cl)cc1Cl` (stereo unspecified) gave a melting point of 121 to 122 °C.
`C=CCN(c1ccccc1CC(=O)O)c1c(Cl)cccc1Cl` registered a melting point of 148 °C.
The compound `O=C(O)CC1c2ccccc2COc2ccccc21` (stereo unspecified) yielded a melting point of 114 to 115 °C.
In turn, `CC(=O)NCCn1ccc2ncnc(Nc3ccc(Oc4cccc5sncc45)c(Cl)c3)c21` came in with a melting point of 222 to 224 °C.
Turning to `CCCCOc1c2c(nc3c1cnn3CC)C(O)c1ccccc1CC2` (stereo unspecified), the melting point was 163 to 165 °C.
Compound `O=C1CC(=CCl)c2c(O)cc(O)cc2O1` gave a melting point of 228 to 230 °C.
Regarding `Cn1c(=O)oc2cc([N+](=O)[O-])cc(F)c21`, the melting point was 118 to 119 °C.
In the case of `CN1C(=O)N(c2cc(Cl)cc(Cl)c2)C(=O)[C@]12CN(Cc1ccccc1)C[C@H]2c1ccc(C#N)cc1` (relative stereo), the melting point came out at 164 °C.
Regarding `COC(=O)c1cc2c(cnn2C)nc1C(=O)OC`, the melting point is 148 to 149 °C.
`Cc1ccc(-c2ccc(C(=O)Nc3ccc4nc(CN(C(C)C)C(C)C)ccc4c3)cn2)cc1` displayed a melting point of 211 to 213 °C.
Compound `Nc1nc(N)c2ncn(COCCOC(=O)c3ccccc3)c2n1` showed a melting point of 205 °C.
In the case of `Cc1cc(OCc2coc(/C=C/c3ccc(OC(F)(F)F)cc3)n2)ccc1CCCCc1cn(C(c2ccccc2)(c2ccccc2)c2ccccc2)nn1` it was 135 to 136 °C; in that of `Cc1cc(COc2nn3c(-c4ccccc4F)nncc3c2-c2ccccc2F)nn1C`, 183 °C; in that of `CC(=O)NC(Cc1ccc(C)c(C)c1)C(=O)O` (racemic), 136 to 139 °C.
In the case of `CS(=O)(=O)N1CCSc2ccccc2C1` it was 98 to 100 °C.
The compound `O=C(CC(Cc1ccccc1)C(=O)O)c1ccc(F)cc1` (single isomer, unassigned; (+)) came in with a melting point of 88 °C.
In turn, `Cc1ccccc1C(=O)Nc1ccc(C(=O)N2CCCC(N(C)CC#N)c3ccccc32)cc1` (stereo unspecified) yielded a melting point of 227 to 228 °C.
`COc1ccc2[nH]c(-c3cc(C)c(O)c(C)c3)c(C)c2c1` returned a melting point of 158 to 159 °C.
The compound `C/C(=C\CNC(=O)c1ccccc1)c1ccccc1` registered a melting point of 139 °C.
`Oc1nn(-c2ccccc2)cc1CCc1cscn1` showed a melting point of 152 to 153 °C.
Consider `COc1ccc(CC(SC(C)=O)C(N)=O)cc1C(=O)NCc1ccc(C(F)(F)F)cc1` (stereo unspecified), for which the melting point lay within 159 to 161 °C.
`O=C(c1cc(Cl)nc(Cl)c1)n1ccnc1`: the melting point is 148 to 151 °C.
For `Cc1c(C)c2c(c(C)c1NC(=O)C(O)C(C)(C)C)C(c1ccc(C(C)C)cc1)CO2` (stereo unspecified), the melting point was in the range of 165 to 166 °C.
As for `CC(=O)n1cc(Cl)c(-c2cc(Cl)cc(Cl)c2)n1`, the melting point came out at 125 °C.
In the case of `O=C(CN1CCOCC1)Nc1cccc2c1C(=O)c1c-2n[nH]c1-c1ccc(N2CCNCC2)cc1` it was 259 °C.
`Nc1cccc2c1CCCCC2` yielded a melting point of 107 to 111 °C.
With `COc1ccc(/C=C(\CSC(C)=O)C(=O)O)cc1`, the melting point was 155 °C.
The compound `COc1ccc(C(=O)CC(C)(C)C(=O)O)c2c1OC(C)(C)C2` showed a melting point of 159 to 160 °C.
Turning to `COc1ccc(CN2C(=O)[C@H](NC(=O)OC(C)(C)C)[C@@H]2/C=C/C(N)=O)c(OC)c1`, the melting point was determined as 270 °C.
In the case of `CCN(C(C)=O)c1cccc(C(=O)C=CN(C)C)c1`, the melting point is 110 to 113 °C.
On to `CN(C)C(=O)C1CCCc2c1c1ccccc1n2Cc1ccccc1` (stereo unspecified), for which the melting point lay in the range of 208 to 210 °C.
Regarding `CSc1noc(-c2ccc(OCCCCOc3ccccc3)cc2)c1C#N`, the melting point fell in the range of 113 to 114 °C.
Take `COc1cccc(C(=O)Nc2ccc3c(c2)CCC3=O)c1`: the melting point lay within 203 to 204 °C.
`CSc1ccc2ncc([N+](=O)[O-])c(-c3ccccc3)c2c1` showed a melting point of 131 to 133 °C.
`CCn1c(N)c(-c2nccn2COCC[Si](C)(C)C)c(=O)c2ccc(Cl)nc21` came in with a melting point of 90 °C.
On to `O=C1c2c(Cl)cccc2-n2cnc(-c3noc(C4CC4)n3)c2[C@@H]2CCCN12`, for which the melting point was 236 to 237 °C.
In turn, `c1cc2[nH]ncc2nc1N1CCCCC1` gave a melting point of 217 to 218 °C.
For the compound `COc1ccc(Cl)cc1-c1c(N)c(=O)[nH]c2c(C(F)(F)F)cccc12`, the melting point lay within 265 to 266 °C.
The compound `COC(=O)c1cc(=O)c(O)co1` gave a melting point of 184 to 186 °C.
In the case of `COc1cc(I)cc2c(O)c(C(=O)NCc3ccc(Cl)cc3)cnc12`, the melting point was in the range of 241 to 243 °C.
`CCOC(=O)C1CCn2c1cc(C)c2C(=O)c1ccc(SC)n1C` (stereo unspecified) showed a melting point of 101 to 102 °C.
The compound `O=[N+]([O-])c1ccc2c(c1)C=C(N1CCN(Cc3ccc4c(c3)OCO4)CC1)c1ccccc1S2` showed a melting point of 188 to 190 °C.
In turn, `O=C(Nc1ccc(-n2nc(C(F)(F)F)cc2C(F)(F)F)cc1)c1ccc(Br)cc1` registered a melting point of 205 to 207 °C.
For the compound `CC1(Br)CCc2cc3c(cc2C1=O)CCO3` (stereo unspecified), the melting point lay within 95 to 98 °C.
The compound `CCS(=O)c1cccc(-c2nc(=O)c3ccccc3s2)n1` (stereo unspecified) yielded a melting point of 182 °C.
`c1cc2c(cc1OCC1CCCCC1)CCCCC2`: the melting point lay within 62 to 63 °C.
The figure for `CCOC(=O)CCCCCCCC1CC2=C(C1)C(=O)C(OC)=C(OC)C2=O` is 39 to 40 °C.
In turn, `O=C1N[C@H](Cc2ccc(C(F)(F)F)cc2)[C@H](c2ccc(F)c(F)c2)O1` (racemic) gave a melting point of 157 to 158 °C.
For `NCC1(O)c2ccccc2C=Cc2ccccc21`, the melting point is 117 to 120 °C.
In the case of `CCCc1nc(C)n2cnnc2c1Cc1ccc(-c2ccccc2-c2nnn[nH]2)cc1` it was 182 to 184 °C; in that of `Cc1nc2c(N)nc3ccc(OCc4ccccc4)cc3c2n1CCCCCS(C)(=O)=O`, 215 to 217 °C.
For the compound `CC(C)c1cc(S(=O)(=O)Cl)c(C(C)C)cc1Br`, the melting point was 80.5 to 83 °C.
`CNC(=S)n1nc(NC(=O)c2ccccc2)nc1N`: the melting point was greater than 300 °C.
Turning to `O=C(CCl)Nc1ccc2c(c1NC(=O)c1ccccc1Cl)C(=O)c1ccccc1C2=O`, the melting point is 193 to 194 °C.
In the case of `COC(=O)C(=O)c1ccc(S(=O)CCOc2ccc3ccccc3c2)cc1` (stereo unspecified) it was 129 to 130 °C; in that of `O=C(NCCc1ccccc1)c1c(Cl)ccc2nc(N3CCC(C(=O)O)CC3)ccc12`, 260 to 262 °C; in that of `CC(C)(C)N1CC(c2cc(Cl)c(N)c(Cl)c2)OC1=O` (stereo unspecified), 97 to 103 °C.
`O=c1c2ccc(Cl)cc2[nH]c2c(O)nn(C3CCCc4sccc43)c(=O)c12` (racemic) showed a melting point greater than 300 °C.
With `C#CC(Cn1cnnn1)n1nnc2cc3c(=O)n(C4CC4)nnc3cc2c1=O` (stereo unspecified), the melting point is greater than 195 °C.
Turning to `OCC1OC(n2c(Cl)nc3cc(Cl)ccc32)C(O)C1O` (stereo unspecified), the melting point was 102 to 150 °C.
In turn, `O=C1CCCC2=C1C(c1cc(Br)cs1)C1=C(CCS1)N2` (stereo unspecified) returned a melting point greater than 250 °C.
In turn, `CSc1nncc(-c2ccco2)n1` showed a melting point of 88 to 90 °C.
